{"source": "paper PMC4669708", "about": "(Cell Death & Disease, 2015)", "key": {"JAK2": {"target": "JAK2 (Homo sapiens, UniProt O60674)", "sequence (O60674 whole entry)": "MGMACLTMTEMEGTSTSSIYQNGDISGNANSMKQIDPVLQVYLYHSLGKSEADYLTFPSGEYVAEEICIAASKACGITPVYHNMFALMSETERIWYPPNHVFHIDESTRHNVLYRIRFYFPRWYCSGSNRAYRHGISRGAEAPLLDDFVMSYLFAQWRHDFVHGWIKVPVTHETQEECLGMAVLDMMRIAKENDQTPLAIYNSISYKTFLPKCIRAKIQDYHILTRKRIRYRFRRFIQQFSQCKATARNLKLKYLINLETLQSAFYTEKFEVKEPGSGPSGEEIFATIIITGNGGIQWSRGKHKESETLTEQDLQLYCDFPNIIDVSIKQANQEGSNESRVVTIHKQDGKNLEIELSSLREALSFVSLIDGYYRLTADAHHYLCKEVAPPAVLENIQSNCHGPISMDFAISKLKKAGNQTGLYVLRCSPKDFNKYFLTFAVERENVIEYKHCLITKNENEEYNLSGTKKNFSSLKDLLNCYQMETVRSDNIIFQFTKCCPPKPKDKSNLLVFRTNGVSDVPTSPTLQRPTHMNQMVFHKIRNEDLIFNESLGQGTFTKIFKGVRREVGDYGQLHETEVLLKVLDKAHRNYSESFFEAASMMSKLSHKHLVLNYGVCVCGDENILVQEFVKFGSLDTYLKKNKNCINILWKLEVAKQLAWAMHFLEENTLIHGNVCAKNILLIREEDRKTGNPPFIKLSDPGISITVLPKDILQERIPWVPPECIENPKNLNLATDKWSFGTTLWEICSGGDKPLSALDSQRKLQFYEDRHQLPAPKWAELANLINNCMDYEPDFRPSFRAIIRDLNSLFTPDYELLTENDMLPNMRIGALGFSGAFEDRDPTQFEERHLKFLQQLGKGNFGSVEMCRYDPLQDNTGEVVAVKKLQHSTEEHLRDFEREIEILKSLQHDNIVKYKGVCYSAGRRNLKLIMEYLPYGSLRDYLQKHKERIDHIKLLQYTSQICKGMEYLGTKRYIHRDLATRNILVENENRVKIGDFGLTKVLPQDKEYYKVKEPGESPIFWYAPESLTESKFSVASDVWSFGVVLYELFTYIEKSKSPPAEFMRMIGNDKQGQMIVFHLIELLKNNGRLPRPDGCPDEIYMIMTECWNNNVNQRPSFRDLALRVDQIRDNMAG", "assay": "c-ponatinib pulldown LC-MS/MS", "type": "binding", "summary_of_the_method": "(§1)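 Spectral counts and search-engine scores from LC-MS/MS of tryptic eluates gave drug-protein specificity P-values. Eluates came from duplicate pulldowns of 10 mg lysate on 25 nmol immobilized c-ponatinib. Competition was the ratio of median counts with versus without free compound.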"}, "STK10": {"target": "STK10 (Homo sapiens, UniProt O94804)", "sequence (O94804 whole entry)": "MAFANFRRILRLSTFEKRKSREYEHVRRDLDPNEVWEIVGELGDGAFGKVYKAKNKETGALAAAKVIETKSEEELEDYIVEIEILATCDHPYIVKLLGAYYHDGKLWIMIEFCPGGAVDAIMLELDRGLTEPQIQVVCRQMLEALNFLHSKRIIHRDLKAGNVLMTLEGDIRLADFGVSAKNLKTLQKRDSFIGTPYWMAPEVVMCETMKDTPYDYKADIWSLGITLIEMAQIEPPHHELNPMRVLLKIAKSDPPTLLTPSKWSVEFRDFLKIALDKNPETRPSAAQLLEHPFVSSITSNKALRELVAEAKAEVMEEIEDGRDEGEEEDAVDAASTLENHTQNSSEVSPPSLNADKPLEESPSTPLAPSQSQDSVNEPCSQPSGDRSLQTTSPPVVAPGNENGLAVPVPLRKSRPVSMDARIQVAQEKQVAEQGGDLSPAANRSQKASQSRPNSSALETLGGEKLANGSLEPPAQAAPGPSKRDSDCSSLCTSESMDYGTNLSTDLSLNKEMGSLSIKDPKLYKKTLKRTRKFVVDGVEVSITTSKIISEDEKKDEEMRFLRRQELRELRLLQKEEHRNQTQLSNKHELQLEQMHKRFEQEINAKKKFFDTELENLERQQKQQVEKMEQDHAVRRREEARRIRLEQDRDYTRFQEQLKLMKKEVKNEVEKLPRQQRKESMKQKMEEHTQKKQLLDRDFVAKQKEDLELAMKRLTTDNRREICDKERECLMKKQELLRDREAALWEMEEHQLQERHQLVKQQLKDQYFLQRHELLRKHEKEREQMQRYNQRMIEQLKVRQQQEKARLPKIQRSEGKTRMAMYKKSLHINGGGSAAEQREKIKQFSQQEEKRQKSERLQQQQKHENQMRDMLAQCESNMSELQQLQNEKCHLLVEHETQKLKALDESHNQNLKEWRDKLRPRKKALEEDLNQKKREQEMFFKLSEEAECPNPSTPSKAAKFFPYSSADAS", "assay": "c-ponatinib pulldown LC-MS/MS", "type": "binding", "summary_of_the_method": "as §1"}, "HCK": {"target": "HCK (Homo sapiens, UniProt P08631)", "sequence (P08631 whole entry)": "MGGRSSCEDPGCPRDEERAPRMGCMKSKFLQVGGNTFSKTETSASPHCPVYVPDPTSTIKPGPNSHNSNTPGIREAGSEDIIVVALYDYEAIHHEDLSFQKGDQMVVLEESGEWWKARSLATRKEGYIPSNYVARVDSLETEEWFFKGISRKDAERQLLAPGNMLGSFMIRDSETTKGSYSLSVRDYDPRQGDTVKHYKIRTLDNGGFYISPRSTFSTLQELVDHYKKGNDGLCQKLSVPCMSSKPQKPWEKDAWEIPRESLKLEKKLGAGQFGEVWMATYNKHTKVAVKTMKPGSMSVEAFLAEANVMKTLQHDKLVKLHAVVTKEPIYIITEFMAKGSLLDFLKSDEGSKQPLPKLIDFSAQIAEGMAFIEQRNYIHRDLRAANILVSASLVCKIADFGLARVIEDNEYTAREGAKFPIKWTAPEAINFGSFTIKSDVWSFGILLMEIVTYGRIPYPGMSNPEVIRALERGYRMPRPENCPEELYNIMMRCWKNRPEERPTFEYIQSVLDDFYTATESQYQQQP", "assay": "c-ponatinib pulldown LC-MS/MS", "type": "binding", "summary_of_the_method": "as §1"}, "YWHAE": {"target": "T1, YWHAE (Homo sapiens, UniProt P62258)", "T1 sequence (P62258 1-255)": "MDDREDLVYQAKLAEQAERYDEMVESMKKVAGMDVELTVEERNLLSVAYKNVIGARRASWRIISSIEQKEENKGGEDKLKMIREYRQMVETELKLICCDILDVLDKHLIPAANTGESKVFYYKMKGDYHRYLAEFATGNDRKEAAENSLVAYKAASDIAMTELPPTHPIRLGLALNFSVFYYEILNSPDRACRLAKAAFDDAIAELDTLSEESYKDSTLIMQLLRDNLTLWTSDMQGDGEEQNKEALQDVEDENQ", "assay": "c-ponatinib pulldown LC-MS/MS", "type": "binding", "summary_of_the_method": "as §1"}, "MAPKAPK2": {"target": "MAPKAPK2 (Homo sapiens, UniProt P49137)", "sequence (P49137 whole entry)": "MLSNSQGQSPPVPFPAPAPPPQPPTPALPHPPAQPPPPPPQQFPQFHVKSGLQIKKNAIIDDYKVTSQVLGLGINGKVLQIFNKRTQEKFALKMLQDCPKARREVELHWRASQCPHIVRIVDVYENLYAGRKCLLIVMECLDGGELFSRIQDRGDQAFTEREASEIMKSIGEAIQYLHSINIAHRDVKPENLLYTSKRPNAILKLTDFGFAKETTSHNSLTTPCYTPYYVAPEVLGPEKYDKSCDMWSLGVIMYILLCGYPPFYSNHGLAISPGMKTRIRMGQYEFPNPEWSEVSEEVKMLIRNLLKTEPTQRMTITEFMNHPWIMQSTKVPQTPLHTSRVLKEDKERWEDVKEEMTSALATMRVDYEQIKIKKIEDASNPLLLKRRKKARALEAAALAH", "assay": "c-ponatinib pulldown LC-MS/MS", "type": "binding", "summary_of_the_method": "as §1"}, "JAK1": {"target": "JAK1 (Homo sapiens, UniProt P23458)", "sequence (P23458 whole entry)": "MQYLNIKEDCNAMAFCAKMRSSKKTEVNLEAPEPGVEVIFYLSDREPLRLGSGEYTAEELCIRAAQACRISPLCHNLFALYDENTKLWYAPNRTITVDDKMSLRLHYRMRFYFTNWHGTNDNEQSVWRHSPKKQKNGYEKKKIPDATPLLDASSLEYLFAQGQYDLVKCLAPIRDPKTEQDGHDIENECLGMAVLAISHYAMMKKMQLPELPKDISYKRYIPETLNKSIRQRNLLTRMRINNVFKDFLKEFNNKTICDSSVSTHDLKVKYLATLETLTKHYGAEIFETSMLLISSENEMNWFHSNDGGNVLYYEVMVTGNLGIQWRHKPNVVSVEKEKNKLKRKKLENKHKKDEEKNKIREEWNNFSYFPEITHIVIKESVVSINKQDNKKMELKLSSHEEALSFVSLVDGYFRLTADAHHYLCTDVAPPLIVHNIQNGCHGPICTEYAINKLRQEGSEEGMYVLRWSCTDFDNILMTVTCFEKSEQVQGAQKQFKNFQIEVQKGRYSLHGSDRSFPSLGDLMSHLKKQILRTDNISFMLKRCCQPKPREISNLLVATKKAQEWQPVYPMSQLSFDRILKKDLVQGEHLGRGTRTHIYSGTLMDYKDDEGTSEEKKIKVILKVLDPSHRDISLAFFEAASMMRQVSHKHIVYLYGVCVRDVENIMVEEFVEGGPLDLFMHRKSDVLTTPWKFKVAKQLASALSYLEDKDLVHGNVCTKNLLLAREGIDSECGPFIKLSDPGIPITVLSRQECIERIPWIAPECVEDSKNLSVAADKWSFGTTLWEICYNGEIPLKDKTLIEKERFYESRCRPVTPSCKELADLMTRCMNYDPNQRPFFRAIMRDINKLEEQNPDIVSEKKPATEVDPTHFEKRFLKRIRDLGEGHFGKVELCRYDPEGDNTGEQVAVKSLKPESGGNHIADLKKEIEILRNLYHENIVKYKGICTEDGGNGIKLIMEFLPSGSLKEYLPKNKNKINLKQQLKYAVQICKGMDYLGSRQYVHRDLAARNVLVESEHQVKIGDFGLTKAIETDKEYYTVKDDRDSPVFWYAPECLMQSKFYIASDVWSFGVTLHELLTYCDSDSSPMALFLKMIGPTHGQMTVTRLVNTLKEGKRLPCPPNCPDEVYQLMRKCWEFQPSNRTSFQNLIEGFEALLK", "assay": "c-ponatinib pulldown LC-MS/MS", "type": "binding", "summary_of_the_method": "as §1"}, "YWHAB": {"target": "T2, YWHAB (Homo sapiens, UniProt P31946)", "T2 sequence (P31946 1-246)": "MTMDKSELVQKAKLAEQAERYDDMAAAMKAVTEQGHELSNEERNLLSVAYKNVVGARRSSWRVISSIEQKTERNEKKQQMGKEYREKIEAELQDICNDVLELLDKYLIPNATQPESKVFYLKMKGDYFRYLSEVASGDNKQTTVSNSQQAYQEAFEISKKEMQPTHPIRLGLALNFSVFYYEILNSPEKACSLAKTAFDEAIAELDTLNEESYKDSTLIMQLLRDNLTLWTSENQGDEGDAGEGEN", "assay": "c-ponatinib pulldown LC-MS/MS", "type": "binding", "summary_of_the_method": "as §1"}, "recombinant RIPK1": {"target": "T3, recombinant RIPK1 (Homo sapiens, UniProt Q13546)", "T3 construct": "purchased Signalchem R07-10G", "T3 sequence (Q13546 1-327 limits assumed)": "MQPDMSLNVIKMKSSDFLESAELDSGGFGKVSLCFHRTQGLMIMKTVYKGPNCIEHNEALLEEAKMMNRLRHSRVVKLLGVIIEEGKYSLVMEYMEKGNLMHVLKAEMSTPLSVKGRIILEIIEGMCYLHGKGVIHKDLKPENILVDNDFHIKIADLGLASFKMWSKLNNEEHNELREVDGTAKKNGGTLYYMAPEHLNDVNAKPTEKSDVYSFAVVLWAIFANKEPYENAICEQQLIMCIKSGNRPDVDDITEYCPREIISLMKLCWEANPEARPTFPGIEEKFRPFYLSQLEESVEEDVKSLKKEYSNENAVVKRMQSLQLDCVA", "assay": "Recombinant kinase assay", "type": "biochemical", "conditions": "50 μM ATP; Supplementary Figure 4b", "description": "Recombinant RIPK1 or RIPK3 protein was incubated with the substrate MBP in kinase assay buffer (40 mM Tris-HCl pH 7.5, 10 mM MgCl2 and 1 mM DTT) in presence of 50 μM ATP, 5 μCi [γ-32 P]ATP and the indicated inhibitors in a total volume of 20 μl. […] The terminated reactions were spotted onto a SAM2 Biotin Capture membrane (Promega) and further processed according to the manufacturer's instructions. […] Data were normalized to a DMSO-treated control sample. For autoradiography, the reactions were stopped by addition of 5 μl 4x Laemmli buffer and incubated for 5 min at 95 °C."}, "RIPK3 to MLKL binding": {"target": "RIPK3 to MLKL binding (Homo sapiens, UniProt Q9Y572)", "sequence (Q9Y572 whole entry)": "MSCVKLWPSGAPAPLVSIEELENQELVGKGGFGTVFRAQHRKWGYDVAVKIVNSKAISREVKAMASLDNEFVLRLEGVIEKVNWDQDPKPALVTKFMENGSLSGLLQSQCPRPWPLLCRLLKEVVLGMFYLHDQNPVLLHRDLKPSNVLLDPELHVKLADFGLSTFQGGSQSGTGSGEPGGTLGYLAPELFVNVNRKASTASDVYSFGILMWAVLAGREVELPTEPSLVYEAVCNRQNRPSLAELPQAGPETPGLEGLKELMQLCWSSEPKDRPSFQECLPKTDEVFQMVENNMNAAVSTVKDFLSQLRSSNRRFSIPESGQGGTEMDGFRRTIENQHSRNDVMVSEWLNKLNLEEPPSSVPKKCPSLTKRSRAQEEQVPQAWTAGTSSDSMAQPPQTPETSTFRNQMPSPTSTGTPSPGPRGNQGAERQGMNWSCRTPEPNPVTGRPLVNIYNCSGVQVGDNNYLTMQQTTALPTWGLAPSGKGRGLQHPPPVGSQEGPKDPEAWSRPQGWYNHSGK", "conditions": "HT-29 HA-MLKL cells, doxycycline overnight; 0.5 μM ponatinib, 5 μM pazopanib"}}, "data": [{"compound": "Cc1ccc(C(=O)Nc2ccc(CN3CCN(CCCN)CC3)c(C(F)(F)F)c2)cc1C#Cc1cnc2cccnn12", "note": "[c-ponatinib]", "values": [{"measurement": "Av. SC comp.", "setting": "JAK2; + free ponatinib", "value": 0}, {"measurement": "Total SC comp.", "setting": "JAK2; + free ponatinib", "value": 0}, {"measurement": "Av. SC", "setting": "JAK2; no competitor", "value": 2.25}, {"measurement": "Total SC", "setting": "JAK2; no competitor", "value": 9}, {"measurement": "Av. SC comp.", "setting": "STK10; + free ponatinib", "value": 0}, {"measurement": "Total SC comp.", "setting": "STK10; + free ponatinib", "value": 0}, {"measurement": "Av. SC", "setting": "STK10; no competitor", "value": 5.5}, {"measurement": "Total SC", "setting": "STK10; no competitor", "value": 22}, {"measurement": "Av. SC comp.", "setting": "HCK; + free ponatinib", "value": 0}, {"measurement": "Total SC comp.", "setting": "HCK; + free ponatinib", "value": 0}, {"measurement": "Av. SC", "setting": "HCK; no competitor", "value": 6}, {"measurement": "Total SC", "setting": "HCK; no competitor", "value": 24}, {"measurement": "Av. SC comp.", "setting": "YWHAE; + free ponatinib", "value": 1}, {"measurement": "Total SC comp.", "setting": "YWHAE; + free ponatinib", "value": 4}, {"measurement": "Av. SC", "setting": "YWHAE; no competitor", "value": 13}, {"measurement": "Total SC", "setting": "YWHAE; no competitor", "value": 52}, {"measurement": "Av. SC comp.", "setting": "MAPKAPK2; + free ponatinib", "value": 0}, {"measurement": "Total SC comp.", "setting": "MAPKAPK2; + free ponatinib", "value": 0}, {"measurement": "Av. SC", "setting": "MAPKAPK2; no competitor", "value": 23.5}, {"measurement": "Total SC", "setting": "MAPKAPK2; no competitor", "value": 94}, {"measurement": "Av. SC comp.", "setting": "JAK1; + free ponatinib", "value": 0}, {"measurement": "Total SC comp.", "setting": "JAK1; + free ponatinib", "value": 0}, {"measurement": "Av. SC", "setting": "JAK1; no competitor", "value": 21.5}, {"measurement": "Total SC", "setting": "JAK1; no competitor", "value": 86}, {"measurement": "Av. SC comp.", "setting": "YWHAB; + free ponatinib", "value": 1}, {"measurement": "Total SC comp.", "setting": "YWHAB; + free ponatinib", "value": 4}, {"measurement": "Av. SC", "setting": "YWHAB; no competitor", "value": 7}, {"measurement": "Total SC", "setting": "YWHAB; no competitor", "value": 28}]}, {"compound": "Cc1ccc(C(=O)Nc2ccc(CN3CCN(C)CC3)c(C(F)(F)F)c2)cc1C#Cc1cnc2cccnn12", "note": "[ponatinib, Ponatinib]", "values": [{"measurement": "RIPK1 kinase activity (MBP phosphorylation)", "setting": "recombinant RIPK1", "value": "strongly blocked phosphorylation"}, {"measurement": "binding of RIPK3 to MLKL", "setting": "RIPK3 to MLKL binding", "value": "efficiently blocked binding of RIPK3 to MLKL"}]}]}
